In ChEMBL document CHEMBL1137221, “Validation of model of cytochrome P450 2D6: an in silico tool for predicting metabolism and inhibition” (J Med Chem, 2004):

target: T1, Cytochrome P450 2D6 (Homo sapiens, UniProt P10635); assay: Inhibitory concentration against cytochrome P450 2D6
T1 sequence (P10635 whole entry): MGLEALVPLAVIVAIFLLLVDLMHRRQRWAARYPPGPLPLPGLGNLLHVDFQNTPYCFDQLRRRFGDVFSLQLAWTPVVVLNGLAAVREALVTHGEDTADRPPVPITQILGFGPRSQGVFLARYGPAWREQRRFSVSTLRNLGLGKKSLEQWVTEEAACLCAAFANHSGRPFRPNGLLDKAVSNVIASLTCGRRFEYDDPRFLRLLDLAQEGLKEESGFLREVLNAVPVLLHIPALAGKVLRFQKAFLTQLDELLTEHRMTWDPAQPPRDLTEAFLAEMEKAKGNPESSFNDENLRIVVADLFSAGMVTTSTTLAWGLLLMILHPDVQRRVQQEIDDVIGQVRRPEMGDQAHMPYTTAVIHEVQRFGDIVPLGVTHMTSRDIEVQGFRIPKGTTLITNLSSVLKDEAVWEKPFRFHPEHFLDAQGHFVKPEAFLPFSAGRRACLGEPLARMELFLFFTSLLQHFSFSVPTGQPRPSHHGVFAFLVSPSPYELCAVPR

Row | IC50 [µM] | SMILES
1 | 570 | O=C(O)c1ccc(CNCc2ccccc2)cc1
2 | 234 | NCCCc1c(-c2ccccc2)nc(N)[nH]c1=O
3 | 1020 | O=C(Cn1ccnc1[N+](=O)[O-])N(CCO)CCO
4 | 288 | COc1ccc(S(=O)(=O)N/N=C/C(=O)O)cc1
5 | 11 | CC(C)NC(=O)OCc1c(COC(=O)NC(C)C)c(-c2ccc(Cl)c(Cl)c2)n2c1CCC2
6 | 2020 | O=CC(NC(=O)N(CCCl)N=O)C(O)C(O)C(O)CO (configuration not stated)
7 | 1.5 | CCN(CC)CCNc1ccc(CO)c2sc3ccccc3c(=O)c12 [HYCANTHONE]

Further lines, the molecule ahead of its results:

Row | SMILES | IC50 [µM]
8 | NS(=O)(=O)OCCCCCCCOS(N)(=O)=O | 699
9 | O=C1CC2(CCCCC2)C(=O)C1CC(Cl)CCl (configuration not stated) | 310
10 | COC12[C@H](COC(N)=O)C3=C(C(O)=C(C)C(=N)C3=O)N1C[C@H]1[C@@H]2N1C (some centres not stated) | 94.3
11 | Clc1ccc(Cl)c(SCCCN2CCNCC2)c1 | 2.1
12 | CN(C)CCOc1ccc(/C(=C/c2ccccc2)c2ccccc2)cc1 | 7.2
13 | NCC(O)CSCc1ccc(Cl)cc1 (configuration not stated) | 8
14 | COc1ccc2c(c1[N+](=O)[O-])CC[C@@H]1[C@@H]2CC[C@]2(C)C(=O)CC[C@@H]12 | 196
15 | COC(=O)C12OC[C@]34[C@H]([C@@H](O)[C@@H]1O)[C@@]1(C)CC(=O)C(O)=C(C)[C@@H]1C[C@H]3OC(=O)[C@H](OC(=O)/C=C(\C)C(C)C)[C@@H]24 (single isomer, unassigned) [BRUCEANTIN] | 514
16 | CC(=O)N(C)c1ccc(Nc2cc(C)nc3ccc4[nH]cnc4c23)cc1 [ACODAZOLE] | 18.1
17 | CN(C)CCN1C(=O)c2cccc3cc(N)cc(c23)C1=O [AMONAFIDE] | 39.6
18 | O=C(O)CCCc1ccc(N(CCCl)CCCl)cc1 [CHLORAMBUCIL] | 65.1
19 | C=C[C@H]1C[N@@]2CC[C@H]1C[C@@H]2[C@@H](O)c1ccnc2ccccc12 [CINCHONINE] | 1.8
20 | Nc1ccc2c(c1)CN1C(=O)c3ccccc3C1=N2 [DANIQUIDONE] | 48
21 | CNCCC=C1c2ccccc2CCc2ccccc21 [NORTRIPTYLINE] | 2.6

target: T1, Cytochrome P450 2D6; assay: Binding affinity for cytochrome P450 2D6; type: ADME

Row | SMILES | Ki [µM]
22 | C=C[C@H]1C[N@@]2CC[C@H]1C[C@@H]2[C@@H](O)c1ccnc2ccccc12 [CINCHONINE] | 21
